In PubChem BioAssay AID248 (DTP/NCI, 2004):
Where “and” joins values, the source holds several entries; their conditions need not be identical. Equal entries are not always repeated. Inconclusive results and toxic doses are left out.

System: L1210 leukemia ip in BDF1 mice, survival T/C
Experiment: NCI In Vivo Anticancer Drug Screen. Data for tumor model L1210 Leukemia (intraperitoneal) in B6D2F1 (BDF1) mice
Settings: endpoint: mean survival time, higher = longer survival
Method in brief: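 Antitumor effect is assessed in tumor-bearing animals. Survival in the compound arm is compared with a vehicle-dosed control arm and expressed as their quotient.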

[1] = dose: 200.0 mg/kg/injection, schedule: Q04DX003 (ip), vehicle: saline
[2] = dose: 400.0 mg/kg/injection, schedule: Q04DX003 (ip), vehicle: saline
[3] = dose: 100.0 mg/kg/injection, schedule: Q04DX003 (ip), vehicle: Klucel (hydroxypropylcellulose) (HPC)
[4] = dose: 200.0 mg/kg/injection, schedule: Q04DX003 (ip), vehicle: Klucel (hydroxypropylcellulose) (HPC)
[5] = dose: 400.0 mg/kg/injection, schedule: Q04DX003 (ip), vehicle: Klucel (hydroxypropylcellulose) (HPC)
[6] = dose: 100.0 mg/kg/injection, schedule: Q01DX009 (ip), vehicle: Klucel (hydroxypropylcellulose) (HPC)
[7] = dose: 100.0 mg/kg/injection, schedule: Q04DX003 (ip), vehicle: saline with Tween-80
[8] = dose: 200.0 mg/kg/injection, schedule: Q04DX003 (ip), vehicle: saline with Tween-80

Structure (SMILES): CCN(CCNc1ccc(C)c2sc3ccccc3c(=O)c12)CC(C)(C)O
- T/C (dose: 25.0 mg/kg/injection, schedule: Q01DX009 (ip), vehicle: saline sonified): 97 % of control
- T/C (dose: 32.0 mg/kg/injection, schedule: Q02DX Z (ip), vehicle: distilled water + alcohol): 119 % of control
- T/C (dose: 50.0 mg/kg/injection, schedule: Q01DX001 (ip), vehicle: saline): 106 % of control
- T/C (dose: 50.0 mg/kg/injection, schedule: Q01DX009 (ip), vehicle: saline sonified): 95 % of control
- T/C (dose: 60.0 mg/kg/injection, schedule: Q01DX009 (ip), vehicle: saline): 120 % of control
- T/C (dose: 100.0 mg/kg/injection, schedule: Q01DX001 (ip), vehicle: saline): 112 % of control
- T/C (dose: 100.0 mg/kg/injection, schedule: Q01DX009 (ip), vehicle: saline sonified): 118 % of control
- T/C (dose: 200.0 mg/kg/injection, schedule: Q01DX001 (ip), vehicle: saline): 109 % of control
- T/C [1]: 104 % of control
- T/C (dose: 300.0 mg/kg/injection, schedule: Q01DX009 (ip), vehicle: saline): 95 % of control
- T/C (dose: 400.0 mg/kg/injection, schedule: Q01DX001 (ip), vehicle: saline): 124 % of control
- T/C [2]: 108 % of control
- T/C (dose: 600.0 mg/kg/injection, schedule: Q04DX003 (ip), vehicle: saline): 189 % of control

Structure (SMILES): CCOC(=O)c1ccc(Nc2sc(C(=O)c3ccccc3)c(N)c2C#N)cc1
- T/C (dose: 100.0 mg/kg/injection, schedule: Q04DX002 (ip), vehicle: saline with Tween-80): 120 % of control
- T/C (dose: 200.0 mg/kg/injection, schedule: Q04DX002 (ip), vehicle: saline with Tween-80): 92 % of control
- T/C (dose: 400.0 mg/kg/injection, schedule: Q04DX002 (ip), vehicle: saline with Tween-80): 89 % of control

Structure (SMILES): Cc1ccc(O)c(S(=O)(=O)F)c1
- T/C [3]: 104 % of control
- T/C [4]: 102 % of control
- T/C [5]: 102 % of control

Structure (SMILES): CC(=O)[C@H]1CC[C@H]2[C@@H]3C[C@H](C)C4=CC(=O)CC[C@]4(C)[C@H]3C(=O)C[C@]12C
- T/C (dose: 20.0 mg/kg/injection, schedule: Q01DX009 (ip), vehicle: carboxymethylcellulose (CMC)): 93 % of control
- T/C (dose: 25.0 mg/kg/injection, schedule: Q01DX015 (sc), vehicle: steriod suspending solution): 104 % of control
- T/C (dose: 32.0 mg/kg/injection, schedule: Q03HX008 (ip), vehicle: Klucel (hydroxypropylcellulose) (HPC)): 93 % of control
- T/C (dose: 32.0 mg/kg/injection, schedule: Q03HX016 (ip), vehicle: Klucel (hydroxypropylcellulose) (HPC)): 92 % of control
- T/C (dose: 32.0 mg/kg/injection, schedule: Q03HX024 (ip), vehicle: Klucel (hydroxypropylcellulose) (HPC)): 97 % of control
- T/C (dose: 40.0 mg/kg/injection, schedule: Q01DX009 (ip), vehicle: carboxymethylcellulose (CMC)): 96 % of control
- T/C (dose: 50.0 mg/kg/injection, schedule: Q01DX015 (sc), vehicle: steriod suspending solution): 96 % of control
- T/C (dose: 64.0 mg/kg/injection, schedule: Q03HX008 (ip), vehicle: Klucel (hydroxypropylcellulose) (HPC)): 92 % of control
- T/C (dose: 64.0 mg/kg/injection, schedule: Q03HX016 (ip), vehicle: Klucel (hydroxypropylcellulose) (HPC)): 94 % of control
- T/C (dose: 64.0 mg/kg/injection, schedule: Q03HX024 (ip), vehicle: Klucel (hydroxypropylcellulose) (HPC)): 93 % of control
- T/C (dose: 67.0 mg/kg/injection, schedule: Q01DX Z (sc), vehicle: steriod suspending solution): 103 % of control
- T/C (dose: 80.0 mg/kg/injection, schedule: Q01DX Z (sc), vehicle: steriod suspending solution): 106 % of control
- T/C (dose: 100.0 mg/kg/injection, schedule: Q01DX015 (sc), vehicle: steriod suspending solution): 98 % of control
- T/C (dose: 100.0 mg/kg/injection, schedule: Q01DX Z (sc), vehicle: steriod suspending solution): 109 % of control
- T/C (dose: 120.0 mg/kg/injection, schedule: Q01DX Z (sc), vehicle: steriod suspending solution): 101 % of control
- T/C (dose: 123.0 mg/kg/injection, schedule: Q01DX009 (ip), vehicle: Klucel (hydroxypropylcellulose) (HPC)): 100 % of control
- T/C (dose: 123.0 mg/kg/injection, schedule: Q03HX008 (ip), vehicle: Klucel (hydroxypropylcellulose) (HPC)): 95 % of control
- T/C (dose: 123.0 mg/kg/injection, schedule: Q03HX016 (ip), vehicle: Klucel (hydroxypropylcellulose) (HPC)): 93 % of control
- T/C (dose: 123.0 mg/kg/injection, schedule: Q03HX024 (ip), vehicle: Klucel (hydroxypropylcellulose) (HPC)): 98 % of control
- T/C (dose: 150.0 mg/kg/injection, schedule: Q01DX Z (sc), vehicle: steriod suspending solution): 106 % of control
- T/C (dose: 160.0 mg/kg/injection, schedule: Q01DX009 (ip), vehicle: carboxymethylcellulose (CMC)): 93 % of control
- T/C (dose: 180.0 mg/kg/injection, schedule: Q01DX Z (sc), vehicle: steriod suspending solution): 97 % of control
- T/C (dose: 200.0 mg/kg/injection, schedule: Q01DX015 (sc), vehicle: steriod suspending solution): 102 % of control and 104 % of control
- T/C (dose: 220.0 mg/kg/injection, schedule: Q01DX Z (sc), vehicle: steriod suspending solution): 97 % of control
- T/C (dose: 255.0 mg/kg/injection, schedule: Q01DX001 (ip), vehicle: Klucel (hydroxypropylcellulose) (HPC)): 96 % of control
- T/C (dose: 255.0 mg/kg/injection, schedule: Q01DX009 (ip), vehicle: Klucel (hydroxypropylcellulose) (HPC)): 103 % of control
- T/C (dose: 255.0 mg/kg/injection, schedule: Q04DX003 (ip), vehicle: Klucel (hydroxypropylcellulose) (HPC)): 97 % of control
- T/C (dose: 255.0 mg/kg/injection, schedule: Q08DX002 (ip), vehicle: Klucel (hydroxypropylcellulose) (HPC)): 104 % of control
- T/C (dose: 270.0 mg/kg/injection, schedule: Q01DX Z (sc), vehicle: steriod suspending solution): 89 % of control
- T/C (dose: 320.0 mg/kg/injection, schedule: Q01DX009 (ip), vehicle: carboxymethylcellulose (CMC)): 87 % of control
- T/C (dose: 330.0 mg/kg/injection, schedule: Q01DX Z (sc), vehicle: steriod suspending solution): 100 % of control
- T/C (dose: 400.0 mg/kg/injection, schedule: Q01DX015 (sc), vehicle: steriod suspending solution): 102 % of control
- T/C (dose: 495.0 mg/kg/injection, schedule: Q01DX Z (sc), vehicle: steriod suspending solution): 94 % of control
- T/C (dose: 512.0 mg/kg/injection, schedule: Q08DX002 (ip), vehicle: Klucel (hydroxypropylcellulose) (HPC)): 103 % of control
- T/C (dose: 640.0 mg/kg/injection, schedule: Q01DX009 (ip), vehicle: carboxymethylcellulose (CMC)): 92 % of control

Structure (SMILES): CC1=CC(=C(c2ccccc2)c2ccccc2)C=C(C)C1=O
- T/C (dose: 12.0 mg/kg/injection, schedule: Q01DX009 (ip), vehicle: Klucel (hydroxypropylcellulose) (HPC)): 103 % of control
- T/C (dose: 25.0 mg/kg/injection, schedule: Q01DX009 (ip), vehicle: Klucel (hydroxypropylcellulose) (HPC)): 107 % of control
- T/C (dose: 50.0 mg/kg/injection, schedule: Q01DX009 (ip), vehicle: Klucel (hydroxypropylcellulose) (HPC)): 97 % of control
- T/C [6]: 100 % of control
- T/C [3]: 102 % of control
- T/C [4]: 102 % of control
- T/C [5]: 122 % of control

Structure (SMILES): CC/C(=C(\c1ccccc1)c1ccc(OCCN(C)C)cc1)c1ccccc1
- T/C (dose: 100.0 mg/kg/injection, schedule: Q04DX002 (ip), vehicle: Klucel (hydroxypropylcellulose) (HPC)): 95 % of control
- T/C (dose: 200.0 mg/kg/injection, schedule: Q04DX002 (ip), vehicle: Klucel (hydroxypropylcellulose) (HPC)): 92 % of control
- T/C (dose: 400.0 mg/kg/injection, schedule: Q04DX002 (ip), vehicle: Klucel (hydroxypropylcellulose) (HPC)): 100 % of control

Structure (SMILES): CN(C)c1ccc(O)c2c1CC1CC3C(N(C)C)C(=O)C(C(N)=O)=C(O)C3(O)C(=O)C1=C2O (stereo not given)
- T/C [7]: 100 % of control
- T/C [8]: 108 % of control

Structure (SMILES): Cc1ccc(NS(=O)(=O)c2ccccc2)cc1
- T/C (dose: 100.0 mg/kg/injection, schedule: Q01DX009 (ip), vehicle: saline with Tween-80): 106 % of control
- T/C [7]: 104 % of control
- T/C (dose: 100.0 mg/kg/injection, schedule: Q04DX003 (ip), vehicle: saline): 93 % of control
- T/C (dose: 200.0 mg/kg/injection, schedule: Q01DX009 (ip), vehicle: saline with Tween-80): 101 % of control
- T/C [8]: 100 % of control
- T/C [1]: 101 % of control
- T/C (dose: 400.0 mg/kg/injection, schedule: Q01DX009 (ip), vehicle: saline with Tween-80): 103 % of control
- T/C (dose: 400.0 mg/kg/injection, schedule: Q04DX003 (ip), vehicle: saline with Tween-80): 104 % of control
- T/C [2]: 106 % of control

Structure (SMILES): [Br][Pb]([Br])([c]1ccccc1)[c]1ccccc1
- T/C [6]: 117 % of control
- T/C [3]: 91 % of control
- T/C (dose: 200.0 mg/kg/injection, schedule: Q01DX009 (ip), vehicle: Klucel (hydroxypropylcellulose) (HPC)): 98 % of control
- T/C [4]: 100 % of control
- T/C [5]: 94 % of control
